The values below come from ChEMBL document CHEMBL4483862, “Open-source discovery of chemical leads for next-generation chemoprotective antimalarials” (2018).

The experiment deals with Plasmodium berghei. As to the kind of experiment: Luciferase/luciferin-expressing antifolate-resistant parasites were used to infect a culture of HepG2 cells that were pre-incubated with compounds. Infected hepatocytes emit light due to the luciferase reaction. Assay results are presented as the percent inhibition of light emission compared to control. […]. The class given is functional. Conditions: sporozoite; for IC90: read-out: LUCIFERASE INFECTION ASSAY - IC90.

For `CC(NC(=O)COc1ccc(-c2nnco2)cc1)c1ccc(Cl)cc1Cl` (stereo unspecified), the IC90 was > 10 µM. Also, the IC50 (FFLUC_HILL_SLOPE 0.318, FFLUC_R_SQUARED 0.016, read-out: LUCIFERASE INFECTION ASSAY - IC50) was > 10 µM.

On to `CC(=O)Nc1cccc(-c2ccnc3c2CC(C(=O)NCc2ccco2)O3)c1` (stereo unspecified), for which the IC90 was determined as 6.23 µM. For the same molecule, for the setting “FFLUC_HILL_SLOPE 0.324, FFLUC_R_SQUARED 0.726, HEPG2TOX_HILL_SLOPE 3.12, HEPG2TOX_R_SQUARED 0.86, PBLUC_HILL_SLOPE 2.84, PBLUC_R_SQUARED 0.407, read-out: LUCIFERASE INFECTION ASSAY - IC50”, the IC50 was 2.87 µM.

Turning to `CC1(C(=O)NCc2ccco2)Cc2c(-c3ccc4c(c3)OCO4)ccnc2O1` (stereo unspecified), the IC90 is > 8.72 µM. Also, where the note is “FFLUC_HILL_SLOPE 0.436, FFLUC_R_SQUARED 0.176, HEPG2TOX_HILL_SLOPE 1.94, HEPG2TOX_R_SQUARED 0.783, PBLUC_HILL_SLOPE 1.2, PBLUC_R_SQUARED 0.613, read-out: LUCIFERASE INFECTION ASSAY - IC50”, the IC50 amounted to 2.28 µM.

As for `NS(=O)(=O)c1ccc(Nc2nc(-c3ccc(Cl)s3)cs2)cc1`, the IC90 is > 10 µM. Further, the IC50 (FFLUC_HILL_SLOPE 0.347, FFLUC_R_SQUARED 0.604, read-out: LUCIFERASE INFECTION ASSAY - IC50) was > 10 µM.

Regarding `N#C/C(=C\N1CCN(Cc2ccccc2)CC1)S(=O)(=O)c1ccccn1`, the IC90 is > 8.96 µM. For the same molecule, where the note is “FFLUC_HILL_SLOPE 0.433, FFLUC_R_SQUARED 0.0165, read-out: LUCIFERASE INFECTION ASSAY - IC50”, the IC50 is > 8.96 µM.

Consider `CCOC(=O)c1c(S(=O)(=O)N2CCN(c3ncccc3C(F)(F)F)CC2)c(-c2ccccc2)n(-c2ccccc2)c1C`, for which the IC90 was > 5.51 µM. For the same molecule, for the setting “FFLUC_HILL_SLOPE 0.343, FFLUC_R_SQUARED 0.352, PBLUC_HILL_SLOPE 1.97, PBLUC_R_SQUARED 0.72, read-out: LUCIFERASE INFECTION ASSAY - IC50”, the IC50 was > 5.51 µM.

With `CC(=O)Nc1ccc2c(COC(=O)C(CC(C)C)NC(=O)c3ccc(Cl)cc3)cc(=O)oc2c1` (stereo unspecified), the IC90 was > 10 µM. Also, the IC50 (FFLUC_HILL_SLOPE 0.303, FFLUC_R_SQUARED 0.675, read-out: LUCIFERASE INFECTION ASSAY - IC50) was > 10 µM.

Turning to `CNC(=S)N/N=C1\C(=O)Nc2ccc(C(C)C)cc21`, the IC90 is > 10 µM. The IC50 (FFLUC_HILL_SLOPE 0.391, FFLUC_R_SQUARED 0.18, PBLUC_HILL_SLOPE 8.53, PBLUC_R_SQUARED 0.15, read-out: LUCIFERASE INFECTION ASSAY - IC50) was 8.69 µM.

Regarding `Cc1ccc(S(=O)(=O)/N=C2\C=C3N(CCO)CCOC3(O)c3ccccc32)c(C)c1` (stereo unspecified), the IC90 turned out to be 6.56 µM. Also, the IC50 (FFLUC_HILL_SLOPE 0.405, FFLUC_R_SQUARED 0.0273, HEPG2TOX_HILL_SLOPE 10.4, HEPG2TOX_R_SQUARED 0.538, PBLUC_HILL_SLOPE 3.34, PBLUC_R_SQUARED 0.51, read-out: LUCIFERASE INFECTION ASSAY - IC50) came out at 3.4 µM.

Regarding `CC1(C)CCc2cc(/C=N/NC(=O)c3ccc(Cl)cc3)ccc2O1`, the IC90 is > 9.63 µM. In addition, the IC50 (FFLUC_HILL_SLOPE 0.306, FFLUC_R_SQUARED 0.456, PBLUC_HILL_SLOPE 2.8, PBLUC_R_SQUARED 0.043, read-out: LUCIFERASE INFECTION ASSAY - IC50) is 6.8 µM.

Take `Cc1ccc(-c2nn(-c3ccccc3)c3[nH]c(-c4ccccc4)cc(=O)c23)cc1`: the IC90 was > 10 µM. Besides, where the note is “FFLUC_HILL_SLOPE 0.301, FFLUC_R_SQUARED 0.0383, PBLUC_HILL_SLOPE 15, PBLUC_R_SQUARED 0.1, read-out: LUCIFERASE INFECTION ASSAY - IC50”, the IC50 was 9.8 µM.

Take `CN(Cc1ccc(Cl)cc1Cl)C(=O)c1ccc(NC(=O)C2CC2)cc1`: the IC90 was > 10 µM. Moreover, under “FFLUC_HILL_SLOPE 0.429, FFLUC_R_SQUARED 0.32, PBLUC_HILL_SLOPE 3.47, PBLUC_R_SQUARED 0.753, read-out: LUCIFERASE INFECTION ASSAY - IC50”, the IC50 was 6.88 µM.

`O=c1c2c3c(sc2nc(SCc2cc([N+](=O)[O-])cc4c2OCOC4)n1C1CCCC1)CCCC3`: the IC90 was > 10 µM. The IC50 (FFLUC_HILL_SLOPE 0.343, FFLUC_R_SQUARED 0.0189, read-out: LUCIFERASE INFECTION ASSAY - IC50) is > 10 µM.

Take `Cc1cc(C(=O)OCC(=O)NC(=O)NC(C)(C)C)c(C)n1-c1ccccc1`: the IC90 was > 10 µM. In addition, for the setting “FFLUC_HILL_SLOPE 0.365, FFLUC_R_SQUARED 0.0382, read-out: LUCIFERASE INFECTION ASSAY - IC50”, the IC50 is > 10 µM.

For the molecule `CNc1nc(-c2[nH]c(C)c(C(=O)OC)c2C)cs1`, the IC90 came out at 2.11 µM. Also, the IC50 (FFLUC_HILL_SLOPE 0.348, FFLUC_R_SQUARED 0.146, HEPG2TOX_HILL_SLOPE 0.722, HEPG2TOX_R_SQUARED 0.883, PBLUC_HILL_SLOPE 1.52, PBLUC_R_SQUARED 0.828, read-out: LUCIFERASE INFECTION ASSAY - IC50) is 0.496 µM.

Regarding `N#Cc1ccc(-c2cnc3cnc(-c4cnn(Cc5ccccc5)c4)cn23)cc1`, the IC90 was > 8.77 µM. Further, the IC50 (FFLUC_HILL_SLOPE 0.364, FFLUC_R_SQUARED 0.0429, PBLUC_HILL_SLOPE 3.85, PBLUC_R_SQUARED 0.0396, read-out: LUCIFERASE INFECTION ASSAY - IC50) is 7.64 µM.

`O=C(NC1CC1)c1ccc(-c2cn3c(-c4ccc(CO)cc4)cnc3cn2)cc1`: the IC90 is > 8.58 µM. For the same molecule, for the setting “FFLUC_HILL_SLOPE 0.381, FFLUC_R_SQUARED 0.0382, PBLUC_HILL_SLOPE 16.7, PBLUC_R_SQUARED 0.0287, read-out: LUCIFERASE INFECTION ASSAY - IC50”, the IC50 worked out at 8.32 µM.

`COc1ccc(-c2cnc3cnc(-c4cccc(N)c4)cn23)cc1`: the IC90 amounted to 1.68 µM. In addition, the IC50 (FFLUC_HILL_SLOPE 0.419, FFLUC_R_SQUARED 0.0515, PBLUC_HILL_SLOPE 8.9, PBLUC_R_SQUARED 0.87, read-out: LUCIFERASE INFECTION ASSAY - IC50) was 1.31 µM.

`Cc1cccc(-c2cc(NC=O)c3ncc(-c4ccc(S(C)(=O)=O)cc4)n3c2)c1`: the IC90 is > 8.14 µM. In addition, where the note is “FFLUC_HILL_SLOPE 0.295, FFLUC_R_SQUARED 0.0341, HEPG2TOX_HILL_SLOPE 11.3, HEPG2TOX_R_SQUARED 0.289, read-out: LUCIFERASE INFECTION ASSAY - IC50”, the IC50 was > 8.14 µM.

Turning to `CCNC(=S)NNC(=O)/C=C/c1ccccc1OC`, the IC90 was > 10 µM. For the same molecule, where the note is “FFLUC_HILL_SLOPE 0.401, FFLUC_R_SQUARED 0.162, HEPG2TOX_HILL_SLOPE 12.3, HEPG2TOX_R_SQUARED 0.97, read-out: LUCIFERASE INFECTION ASSAY - IC50”, the IC50 was > 10 µM.

Consider `Cc1ccc(C(CN2CCOCC2)Nc2nc(C(F)(F)F)nc3ccccc23)cc1` (stereo unspecified), for which the 90% effect concentration (IC90) is 3.63 µM. Besides, the IC50 (FFLUC_HILL_SLOPE 0.43, FFLUC_R_SQUARED 0.0433, PBLUC_HILL_SLOPE 12.3, PBLUC_R_SQUARED 0.751, read-out: LUCIFERASE INFECTION ASSAY - IC50) is 3.04 µM.

For the molecule `Cc1ccc(Nc2cc(C)nc3c(-c4ccccc4)cnn23)cc1`, the IC90 is > 10.5 µM. Besides, where the note is “FFLUC_HILL_SLOPE 0.324, FFLUC_R_SQUARED 0.749, HEPG2TOX_HILL_SLOPE 3.12, HEPG2TOX_R_SQUARED 0.973, read-out: LUCIFERASE INFECTION ASSAY - IC50”, the IC50 was > 10.5 µM.

Take `Cc1ccc(C)c(Oc2ccc(NC(=O)Nc3ccc(SC(F)(F)F)cc3)cn2)c1`: the IC90 amounted to 2.68 µM. The IC50 (FFLUC_HILL_SLOPE 0.447, FFLUC_R_SQUARED 0.395, HEPG2TOX_HILL_SLOPE 4.72, HEPG2TOX_R_SQUARED 0.964, PBLUC_HILL_SLOPE 32.1, PBLUC_R_SQUARED 0.384, read-out: LUCIFERASE INFECTION ASSAY - IC50) stood at 2.5 µM.

Consider `CC(C)(C)c1ccc(C(=O)NNC(=S)Nc2ccccc2)cc1`, for which the IC90 is > 10.1 µM. The IC50 (FFLUC_HILL_SLOPE 0.417, FFLUC_R_SQUARED 0.371, PBLUC_HILL_SLOPE 1.47, PBLUC_R_SQUARED 0.465, read-out: LUCIFERASE INFECTION ASSAY - IC50) turned out to be 3.05 µM.

On to `N#CC(Cc1ccccc1)Sc1nnc(-c2ccccc2)n1-c1ccccc1` (stereo unspecified), for which the IC90 was > 10 µM. Also, the IC50 (FFLUC_HILL_SLOPE 0.339, FFLUC_R_SQUARED 0.0197, read-out: LUCIFERASE INFECTION ASSAY - IC50) is > 10 µM.

On to `CN(C)c1ccccc1-c1cn2c(-c3ccc4c(ccn4C)c3)cnc2cn1`, for which the IC90 was 1.24 µM. Further, where the note is “FFLUC_HILL_SLOPE 0.352, FFLUC_R_SQUARED 0.0452, HEPG2TOX_HILL_SLOPE 0.416, HEPG2TOX_R_SQUARED 0.805, PBLUC_HILL_SLOPE 0.654, PBLUC_R_SQUARED 0.684, read-out: LUCIFERASE INFECTION ASSAY - IC50”, the IC50 amounted to 0.043 µM.

Turning to `COc1ccccc1NS(=O)(=O)c1ccc(NNC(=S)Nc2cc(C)cc(C)c2)c([N+](=O)[O-])c1`, the concentration for an effect of 90% (IC90) was > 10 µM. Under “FFLUC_HILL_SLOPE 0.289, FFLUC_R_SQUARED 0.0194, HEPG2TOX_HILL_SLOPE 0.191, HEPG2TOX_R_SQUARED 0.347, PBLUC_HILL_SLOPE 3.05, PBLUC_R_SQUARED 0.49, read-out: LUCIFERASE INFECTION ASSAY - IC50”, the IC50 is 5.73 µM.

Take `Cc1cc(NC(c2cccc(Br)c2)c2ccc3cccnc3c2O)no1` (stereo unspecified): the IC90 was determined as 5.63 µM. Moreover, the IC50 (FFLUC_HILL_SLOPE 0.447, FFLUC_R_SQUARED 0.211, HEPG2TOX_HILL_SLOPE 1.34, HEPG2TOX_R_SQUARED 0.983, PBLUC_HILL_SLOPE 2.79, PBLUC_R_SQUARED 0.445, read-out: LUCIFERASE INFECTION ASSAY - IC50) worked out at 2.56 µM.
